Data: patent US9133262B2, “Somatostatin antagonists” (Ipsen Pharma S.A.S., priority 1996, dated 2015)
Positions of bridges follow the written chain, without caps; N, C: chain ends. Non-standard residues stand in square brackets, D forms with d. Residues, ends and D or L forms follow the SMILES beside them. Phe(F5) = N[C@@H](Cc1c(F)c(F)c(F)c(F)c1F)C(=O)O; dDip = N[C@@H](C(=O)O)C(c1ccccc1)c1ccccc1; Phe(4-CN) = N#Cc1ccc(C[C@H](N)C(=O)O)cc1; Phe(4-Cl) = N[C@@H](Cc1ccc(Cl)cc1)C(=O)O; dPhe(4-Cl) = N[C@H](Cc1ccc(Cl)cc1)C(=O)O; Dip = N[C@H](C(=O)O)C(c1ccccc1)c1ccccc1; Phe(4-F) = N[C@@H](Cc1ccc(F)cc1)C(=O)O; dPhe(4-F) = N[C@H](Cc1ccc(F)cc1)C(=O)O; 2Nal = N[C@@H](Cc1ccc2ccccc2c1)C(=O)O; d2Nal = N[C@H](Cc1ccc2ccccc2c1)C(=O)O; Igl = N[C@H](C(=O)O)C1Cc2ccccc2C1; 2Pal = N[C@@H](Cc1ccccn1)C(=O)O; 3Pal = N[C@@H](Cc1cccnc1)C(=O)O; Tle = CC(C)(C)[C@H](N)C(=O)O

Each compound was assayed on rat pituitary cells. Settings: 3 h.
Type: cell-based
Excerpt: Bioassay on the In Vitro Release of Growth Hormone
(a) Rat Pituitary Cell Dispersion
Pituitaries from adult Charles River CD male rats (Wilmington, Mass.) housed under controlled conditions were dispersed and cultured using aseptic technique by modification of previously described methods (Hoefer, M. T., et al., Mol. Cell. Endocrinol. 35:229 (1984); Ben-Jonathan, N., et al., Methods Enzymol. 103:249 (1983); and Heiman, M. L., et al., Endocrinology 116:410 (1985)). Pituitaries were removed from sacrificed rats, sectioned, and then placed into a siliconized, liquid scintillation vial containing 2 ml 0.2% trypsin (Worthington Biochemicals, Freehold, N.J.) in sterile-filtered Krebs-Ringer bicarbonate buffer supplemented with 1% bovine serum albumin, 14 mM glucose, modified Eagle medium (MEM) vitamin solution, and MEM amino acids (Gibco Laboratories, Grand Island, N.Y.) (KRBGA). All glassware was siliconized as described by Sayers, et al., Endocrinology 88:1063 (1971). The fragments were incubated in a water bath for 35 min at 37° C. with agitation. The vial contents then were poured into a scintillation vial containing 2 ml 0.1% DNase (Sigma Chemical Co., St. Louis, Mo.) in KRBGA and incubated for 2 min at 37° C. with agitation. After incubation, the tissue was decanted into a 15 ml centrifuge tube and allowed to settle. Medium was discarded, and pituitary sections were washed 3 times with 1 ml fresh-KRBGA. The cells were then dispersed in 2 ml 0.05% LBI (lima bean trypsin inhibitor, Worthington Biochemicals) by gently drawing the fragments into and expelling them out of a siliconized, fire polished Pasteur pipette. Dispersed cells were then filtered through a 630 μm diameter Nylon mesh (Tetko, Elmsford, N.Y.) into a fresh 15 ml centrifuge tube. An additional 2 ml of 0.05% LBI solution was used to rinse the first tube and was transferred to the second tube with filtering.
The dispersed cells were then further diluted with approximately 15 ml sterile-filtered Dulbecco's modified Eagle medium (GIBCO), which was supplemented with 2.5% fetal calf serum (GIBCO), 3% horse serum (GIBCO), 10% fresh rat serum (stored on ice for no longer than 1 hr) from the pituitary donors, 1% MEM non-essential amino acids (GIBCO), and gentamycin (10 ng/ml; Sigma) and nystatin (10,000 U/ml; GIBCO). The cells were poured into a 50 ml round-bottomed glass extraction flask with a large diameter opening and then randomly plated at a density of approximately 200,000 cells per well (Co-star cluster 24; Rochester Scientific Co., Rochester, N.Y.). The plated cells were maintained in the above Dulbecco's medium in a humidified atmosphere of 95% air and 5% CO2 at 37° C. for 4-5 days.
(c) Experimental Incubation and IC50 Determination
In preparation for a hormone challenge, the cells were washed 3 times with medium 199 (GIBCO) to remove old medium and floating cells. Each treatment well contained a total volume of 1 ml medium 199 containing 1% BSA (fraction V; Sigma) with treatments as described below. Each antagonist candidate was tested using a single 24-well cell culture plate. Each treatment was performed in triplicate. Each plate contained 8 treatment groups: one 1 nM growth hormone releasing factor (GRF) (1-29)NH2-stimulated control group; one 1 nM somatostatin-inhibited control group in the presence of 1 nM GRF(1-29)NH2; and 6 doses of a given antagonist in the presence of both 1 nM SRIF and 1 nM GRF per plate. After 3 hrs at 37° C. in a air/carbon dioxide atmosphere (95/5%), the medium was removed and stored at −20° C. until radioimmunoassayed for growth hormone content. IC50's of each antagonist versus 1 nM SRIF were calculated using a computer program (SigmaPlot, Jandel Scientific, San Rafael, Calif.) with the maximum response constrained to the value of the 1 nM GRF(1-29)NH2-stimulated control.

SMILES	IC50 [µM]
CC(C)[C@@H]1NC(=O)[C@H](CCCCN)NC(=O)[C@@H](Cc2c[nH]c3ccccc23)NC(=O)[C@H](Cc2ccccn2)NC(=O)[C@H](NC(=O)[C@@H](N)Cc2c(F)c(F)c(F)c(F)c2F)CSSC[C@@H](C(=O)N[C@@H](Cc2c(F)c(F)c(F)c(F)c2F)C(N)=O)NC1=O [Analog No. 17, H2—F5-Phe-D-Cys-2-Pal-D-Trp-Lys-Val-Cys-F5-Phe-NH2] (H-[Phe(F5)][dC][2Pal][dW]KVC[Phe(F5)]-NH2; disulfide 2-7)	1
CC(C)C[C@@H]1NC(=O)[C@H](CCCCN)NC(=O)[C@@H](Cc2c[nH]c3ccccc23)NC(=O)[C@H](Cc2cccnc2)NC(=O)[C@H](NC(=O)[C@@H](N)Cc2ccc3ccccc3c2)CSSC[C@@H](C(=O)N[C@@H](Cc2ccc3ccccc3c2)C(N)=O)NC1=O [Analog No. 35, H2-β-Nal-D-Cys-Pal-D-Trp-Lys-Leu-Cys-β-Nal-NH2] (H-[2Nal][dC][3Pal][dW]KLC[2Nal]-NH2; disulfide 2-7)	0.052
CC(C)[C@H](NC(=O)[C@H](CCCCN)NC(=O)[C@@H](Cc1c[nH]c2ccccc12)NC(=O)[C@H](Cc1ccc(O)cc1)NC(=O)[C@@H](Cc1ccc(Cl)cc1)NC(=O)[C@H](N)Cc1ccc2ccccc2c1)C(=O)N[C@@H](Cc1ccccc1)C(=O)N[C@H](C(N)=O)[C@@H](C)O [Analog No. 8, H2-D-β-Nal-D-Cpa-Tyr-D-Trp-Lys-Val-Phe-Thr-NH2] (H-[d2Nal][dPhe(4-Cl)]Y[dW]KVFT-NH2)	3.96
CC(C)[C@@H]1NC(=O)[C@H](CCCCN)NC(=O)[C@@H](Cc2c[nH]c3ccccc23)NC(=O)[C@H](Cc2cccnc2)NC(=O)[C@H](NC(=O)[C@@H](N)C(c2ccccc2)c2ccccc2)CSSC[C@@H](C(=O)N[C@H](C(N)=O)C(c2ccccc2)c2ccccc2)NC1=O [Analog No. 10, H2-Dip-D-Cys-Pal-D-Trp-Lys-Val-Cys-Dip-NH2] (H-[Dip][dC][3Pal][dW]KVC[Dip]-NH2; disulfide 2-7)	0.62

Second part, the compound after the results:

IC50 [µM]	SMILES
0.13	CC(C)[C@@H]1NC(=O)[C@H](CCCCN)NC(=O)[C@@H](Cc2c[nH]c3ccccc23)NC(=O)[C@H](Cc2cccnc2)NC(=O)[C@H](NC(=O)[C@@H](N)Cc2ccc3ccccc3c2)CSSC[C@@H](C(=O)N[C@@H](C(N)=O)C(c2ccccc2)c2ccccc2)NC1=O [Analog No. 45, H2-β-Nal-D-Cys-Pal-D-Trp-Lys-Val-Cys-D-Dip-NH2] (H-[2Nal][dC][3Pal][dW]KVC[dDip]-NH2; disulfide 2-7)
0.071	CC(C)(C)[C@@H]1NC(=O)[C@H](CCCCN)NC(=O)[C@@H](Cc2c[nH]c3ccccc23)NC(=O)[C@H](Cc2cccnc2)NC(=O)[C@H](NC(=O)[C@H](N)Cc2ccc(Cl)cc2)CSSC[C@@H](C(=O)N[C@@H](Cc2ccc(Cl)cc2)C(N)=O)NC1=O [Analog No. 7, H2-D-p-Cl-Phe-D-Cys-Pal-D-Trp-Lys-Tle-Cys-p-Cl-Phe-NH2] (H-[dPhe(4-Cl)][dC][3Pal][dW]K[Tle]C[Phe(4-Cl)]-NH2; disulfide 2-7)
0.056	CC(C)[C@@H]1NC(=O)[C@H](CCCCN)NC(=O)[C@@H](Cc2c[nH]c3ccccc23)NC(=O)[C@H](Cc2cccnc2)NC(=O)[C@H](NC(=O)[C@@H](N)Cc2ccc(F)cc2)CSSC[C@@H](C(=O)N[C@@H](Cc2ccc(F)cc2)C(N)=O)NC1=O [Analog No. 12, H2-p-F-Phe-D-Cys-Pal-D-Trp-Lys-Val-Cys-p-F-Phe-NH2] (H-[Phe(4-F)][dC][3Pal][dW]KVC[Phe(4-F)]-NH2; disulfide 2-7)
0.053	CC(C)[C@@H]1NC(=O)[C@H](CCCCN)NC(=O)[C@@H](Cc2c[nH]c3ccccc23)NC(=O)[C@H](Cc2cccnc2)NC(=O)[C@H](NC(=O)[C@@H](N)Cc2ccc(C#N)cc2)CSSC[C@@H](C(=O)N[C@@H](Cc2ccc(C#N)cc2)C(N)=O)NC1=O [Analog No. 47, H2-p-CN-Phe-D-Cys-Pal-D-Trp-Lys-Val-Cys-p-CN-Phe-NH2] (H-[Phe(4-CN)][dC][3Pal][dW]KVC[Phe(4-CN)]-NH2; disulfide 2-7)
0.05	CC(C)[C@@H]1NC(=O)[C@H](CCCCN)NC(=O)[C@@H](Cc2c[nH]c3ccccc23)NC(=O)[C@H](Cc2ccc(O)cc2)NC(=O)[C@H](NC(=O)[C@@H](N)Cc2ccc3ccccc3c2)CSSC[C@@H](C(=O)N[C@@H](C(N)=O)C(c2ccccc2)c2ccccc2)NC1=O [Analog No. 48, H2-β-Nal-D-Cys-Tyr-D-Trp-Lys-Val-Cys-D-Dip-NH2] (H-[2Nal][dC]Y[dW]KVC[dDip]-NH2; disulfide 2-7)
0.044	CC(C)[C@@H]1NC(=O)[C@H](CCCCN)NC(=O)[C@@H](Cc2c[nH]c3ccccc23)NC(=O)[C@H](Cc2cccnc2)NC(=O)[C@H](NC(=O)[C@@H](N)Cc2ccc3ccccc3c2)CSSC[C@@H](C(=O)N[C@H](C(N)=O)C(c2ccccc2)c2ccccc2)NC1=O [Analog No. 42, H2-β-Nal-D-Cys-Pal-D-Trp-Lys-Val-Cys-Dip-NH2] (H-[2Nal][dC][3Pal][dW]KVC[Dip]-NH2; disulfide 2-7)
0.029	CC(C)(C)[C@@H]1NC(=O)[C@H](CCCCN)NC(=O)[C@@H](Cc2c[nH]c3ccccc23)NC(=O)[C@H](Cc2cccnc2)NC(=O)[C@H](NC(=O)[C@@H](N)Cc2c[nH]c3ccccc23)CSSC[C@@H](C(=O)N[C@@H](Cc2ccc3ccccc3c2)C(N)=O)NC1=O [Analog No. 54, H2-Trp-D-Cys-Pal-D-Trp-Lys-Tle-Cys-β-Nal-NH2] (H-W[dC][3Pal][dW]K[Tle]C[2Nal]-NH2; disulfide 2-7)
0.021	CC(C)[C@@H]1NC(=O)[C@H](CCCCN)NC(=O)[C@@H](Cc2c[nH]c3ccccc23)NC(=O)[C@H](Cc2cccnc2)NC(=O)[C@H](NC(=O)[C@@H](N)C2Cc3ccccc3C2)CSSC[C@@H](C(=O)N[C@H](C(N)=O)C2Cc3ccccc3C2)NC1=O [Analog No. 44, H2-Igl-D-Cys-Pal-D-Trp-Lys-Val-Cys-Igl-NH2] (H-[Igl][dC][3Pal][dW]KVC[Igl]-NH2; disulfide 2-7)
0.012	CC(C)(C)[C@@H]1NC(=O)[C@H](CCCCN)NC(=O)[C@@H](Cc2c[nH]c3ccccc23)NC(=O)[C@H](Cc2cccnc2)NC(=O)[C@H](NC(=O)[C@H](N)Cc2ccc(F)cc2)CSSC[C@@H](C(=O)N[C@@H](Cc2ccc3ccccc3c2)C(N)=O)NC1=O [Analog No. 51, H2-D-p-F-Phe-D-Cys-Pal-D-Trp-Lys-Tle-Cys-β-Nal-NH2] (H-[dPhe(4-F)][dC][3Pal][dW]K[Tle]C[2Nal]-NH2; disulfide 2-7)
0.0084	CC(C)(C)[C@@H]1NC(=O)[C@H](CCCCN)NC(=O)[C@@H](Cc2c[nH]c3ccccc23)NC(=O)[C@H](Cc2cccnc2)NC(=O)[C@H](NC(=O)[C@@H](N)Cc2ccc3ccccc3c2)CSSC[C@@H](C(=O)N[C@@H](Cc2ccc3ccccc3c2)C(N)=O)NC1=O [Analog No. 29, H2-β-Nal-D-Cys-Pal-D-Trp-Lys-Tle-Cys-β-Nal-NH2] (H-[2Nal][dC][3Pal][dW]K[Tle]C[2Nal]-NH2; disulfide 2-7)

Same assay, conditions: cultured rat pituitary cells; 1 nM SRIF and 1 nM GRF(1-29)NH2; 3 hrs at 37° C.; growth hormone by radioimmunoassay; read-out: IC50 of antagonist versus 1 nM SRIF (growth hormone release)

SMILES	IC50 [µM]
CC(C)[C@@H]1NC(=O)[C@H](CCCCN)NC(=O)[C@@H](Cc2c[nH]c3ccccc23)NC(=O)[C@H](Cc2ccc(O)cc2)NC(=O)[C@H](NC(=O)[C@@H](N)Cc2ccc3ccccc3c2)CSSC[C@@H](C(=O)N[C@@H](Cc2ccc3ccccc3c2)C(N)=O)NC1=O [Analog No. 2, H2-β-Nal-D-Cys-Tyr-D-Trp-Lys-Val-Cys-β-Nal-NH2] (H-[2Nal][dC]Y[dW]KVC[2Nal]-NH2; disulfide 2-7)	0.04
CC(C)[C@@H]1NC(=O)[C@H](CCCCN)NC(=O)[C@@H](Cc2c[nH]c3ccccc23)NC(=O)[C@H](Cc2ccc(O)cc2)NC(=O)[C@H](NC(=O)[C@@H](N)Cc2ccc3ccccc3c2)CSSC[C@@H](C(=O)N[C@H](Cc2ccc3ccccc3c2)C(N)=O)NC1=O [Analog No. 25, H2-β-Nal-D-Cys-Tyr-D-Trp-Lys-Val-Cys-D-β-Nal-NH2] (H-[2Nal][dC]Y[dW]KVC[d2Nal]-NH2; disulfide 2-7)	0.28
